Measured values as given in patent EP3892267A1, “C[…] FOR LYMPHOMA” (Université de Paris, priority 2020, dated 2021).
Structures can show the parent of a compound that is named as a salt.

How the values were obtained:
MD901 cell line = assay: Immunoblotting for cleaved caspase 3; format: cell-based, Human; conditions: MD901 (ABC); metformin 2.5mM, Kidrolase 2UI/mL, alone or combined
Protocol: (§1) The cells are washed in cold 1X PBS then lysis is carried out at 4°C (on ice) for 20 minutes, using a mix containing a High Salt buffer (0.4 M NaCl). 25 mM Hepes pH 7.7, 1.5 mM MgCI 2, 0.2 mM EDTA, 1%NP4O), protease and phosphatase inhibitors (20 mM glycerol phosphate, 0.2 mM Na3VO4, 10mM PNPP, 2 mM DTT, […] and an inhibitor cocktail from Boehringer Company). Whole cell extracts are centrifuged also at 4°C for 10 minutes at 13 000 rpm, the supernatant is transferred to an Eppendorf tube and the proteins are dosed using a protein kit assay (Bio-Rad) and stored at - 80°C. Immunoblotting was performed as previously reported (Authier H et al, 2014). Cleaved caspase 3 and β-actin antibodies are from Cell Signaling Technologies and Sigma, respectively.

OCI-LY19 cell line = assay: Immunoblotting for cleaved caspase 3; format: cell-based, Human; conditions: OCI-LY19 (GCB); metformin 2.5mM, Kidrolase 2UI/mL, alone or combined
Protocol: as §1

In the case of `CN(C)C(=N)N=C(N)N` [metformin, Metformin hydrochloride], the “activation of caspase 3 (cleaved caspase 3)” value (MD901 cell line) is reported as “not to barely detectable” and the “activation of caspase 3 (cleaved caspase 3)” value (OCI-LY19 cell line) is reported as “not to barely detectable”.
